Data reported in PubChem BioAssay (NCI).
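All cell lines were grown in 96-well plates and treated with compound for 48 hours. Definition used: TGI = concentration required for complete inhibition of growth.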

Key:
Experiment in all cases: NCI tumour cell line growth inhibition, 48 h
786-0 renal = system: 786-0 renal
A498 renal = system: A498 renal
A549 NSCLC = system: A549 NSCLC
ACHN renal = system: ACHN renal
BT-549 breast = system: BT-549 breast
CAKI-1 renal = system: CAKI-1 renal
CCRF-CEM leukemia = system: CCRF-CEM leukemia
COLO 205 colon = system: COLO 205 colon
DLD-1 colon = system: DLD-1 colon
DMS 114 small cell lung = system: DMS 114 small cell lung
DMS 273 small cell lung = system: DMS 273 small cell lung
DU-145 prostate = system: DU-145 prostate
EKVX NSCLC = system: EKVX NSCLC
HCC-2998 colon = system: HCC-2998 colon
HCT-116 colon = system: HCT-116 colon
HCT-15 colon = system: HCT-15 colon
HL-60(TB) leukemia = system: HL-60(TB) leukemia
HOP-18 NSCLC = system: HOP-18 NSCLC
HOP-62 NSCLC = system: HOP-62 NSCLC
HOP-92 NSCLC = system: HOP-92 NSCLC
HS 578T breast = system: HS 578T breast
HT29 colon = system: HT29 colon
IGROV1 ovarian = system: IGROV1 ovarian
K-562 leukemia = system: K-562 leukemia
KM12 colon = system: KM12 colon
KM20L2 colon = system: KM20L2 colon
LOX IMVI melanoma = system: LOX IMVI melanoma
LXFL 529 NSCLC = system: LXFL 529 NSCLC
M14 melanoma = system: M14 melanoma
M19-MEL melanoma = system: M19-MEL melanoma
MALME-3M melanoma = system: MALME-3M melanoma
MCF7 breast = system: MCF7 breast
MDA-MB-231 breast = system: MDA-MB-231 breast
MDA-MB-435 = system: MDA-MB-435
MDA-N = system: MDA-N
MOLT-4 leukemia = system: MOLT-4 leukemia
NCI-H226 lung = system: NCI-H226 lung
NCI-H23 lung = system: NCI-H23 lung
NCI-H460 lung = system: NCI-H460 lung
NCI-H522 lung = system: NCI-H522 lung
NCI/ADR-RES ovarian = system: NCI/ADR-RES ovarian
OVCAR-3 ovarian = system: OVCAR-3 ovarian
OVCAR-4 ovarian = system: OVCAR-4 ovarian
OVCAR-5 ovarian = system: OVCAR-5 ovarian
OVCAR-8 ovarian = system: OVCAR-8 ovarian
P388 leukemia = system: P388 leukemia
P388/ADR leukemia = system: P388/ADR leukemia
PC-3 prostate = system: PC-3 prostate
RPMI-8226 leukemia = system: RPMI-8226 leukemia
RXF 393 renal = system: RXF 393 renal
SF-268 CNS = system: SF-268 CNS
SF-295 CNS = system: SF-295 CNS
SF-539 CNS = system: SF-539 CNS
SK-MEL-2 melanoma = system: SK-MEL-2 melanoma
SK-MEL-28 melanoma = system: SK-MEL-28 melanoma
SK-MEL-5 melanoma = system: SK-MEL-5 melanoma
SK-OV-3 ovarian = system: SK-OV-3 ovarian
SN12C renal = system: SN12C renal
SN12K1 renal = system: SN12K1 renal
SNB-19 CNS = system: SNB-19 CNS
SNB-75 CNS = system: SNB-75 CNS
SNB-78 CNS = system: SNB-78 CNS
SR leukemia = system: SR leukemia
SW-620 colon = system: SW-620 colon
T-47D breast = system: T-47D breast
TK-10 renal = system: TK-10 renal
U251 CNS = system: U251 CNS
UACC-257 melanoma = system: UACC-257 melanoma
UACC-62 melanoma = system: UACC-62 melanoma
UO-31 renal = system: UO-31 renal
XF 498 CNS = system: XF 498 CNS

## COc1cc(/C=C/C(=O)Oc2ccc(NC(C)=O)cc2)ccc1C(=O)OCc1ccccc1
786-0 renal
  TGI: > 100 µM
A498 renal
  TGI: > 100 µM
A549 NSCLC
  TGI: > 100 µM
ACHN renal
  TGI: > 100 µM
BT-549 breast
  TGI: > 100 µM
CAKI-1 renal
  TGI: > 100 µM
CCRF-CEM leukemia
  TGI: > 100 µM
COLO 205 colon
  TGI: > 100 µM
DLD-1 colon
  TGI: > 100 µM
DMS 114 small cell lung
  TGI: > 100 µM
DMS 273 small cell lung
  TGI: > 100 µM
DU-145 prostate
  TGI: > 100 µM
EKVX NSCLC
  TGI: > 100 µM
HCC-2998 colon
  TGI: > 100 µM
HCT-116 colon
  TGI: > 100 µM
HCT-15 colon
  TGI: > 100 µM
HL-60(TB) leukemia
  TGI: > 100 µM
HOP-18 NSCLC
  TGI: > 100 µM
HOP-62 NSCLC
  TGI: > 91.3 µM
HOP-92 NSCLC
  TGI: > 100 µM
HS 578T breast
  TGI: > 100 µM
HT29 colon
  TGI: > 100 µM
IGROV1 ovarian
  TGI: > 93.2 µM
K-562 leukemia
  TGI: > 100 µM
KM12 colon
  TGI: > 100 µM
KM20L2 colon
  TGI: > 100 µM
LOX IMVI melanoma
  TGI: > 100 µM
LXFL 529 NSCLC
  TGI: > 100 µM
M14 melanoma
  TGI: > 100 µM
M19-MEL melanoma
  TGI: > 100 µM
MALME-3M melanoma
  TGI: > 100 µM
MCF7 breast
  TGI: > 100 µM
MDA-MB-231 breast
  TGI: > 100 µM
MDA-MB-435
  TGI: > 100 µM
MDA-N
  TGI: > 100 µM
MOLT-4 leukemia
  TGI: > 100 µM
NCI-H226 lung
  TGI: > 100 µM
NCI-H23 lung
  TGI: > 100 µM
NCI-H460 lung
  TGI: > 100 µM
NCI-H522 lung
  TGI: > 100 µM
NCI/ADR-RES ovarian
  TGI: > 100 µM
OVCAR-3 ovarian
  TGI: > 100 µM
OVCAR-4 ovarian
  TGI: > 100 µM
OVCAR-5 ovarian
  TGI: > 100 µM
OVCAR-8 ovarian
  TGI: > 100 µM
P388 leukemia
  TGI: > 100 µM
P388/ADR leukemia
  TGI: > 100 µM
PC-3 prostate
  TGI: > 100 µM
RPMI-8226 leukemia
  TGI: > 100 µM
RXF 393 renal
  TGI: 58.3 µM
SF-268 CNS
  TGI: > 100 µM
SF-295 CNS
  TGI: > 89.3 µM
SF-539 CNS
  TGI: 60.8 µM
SK-MEL-2 melanoma
  TGI: 99.8 µM
SK-MEL-28 melanoma
  TGI: > 100 µM
SK-MEL-5 melanoma
  TGI: > 100 µM
SK-OV-3 ovarian
  TGI: > 92 µM
SN12C renal
  TGI: > 100 µM
SN12K1 renal
  TGI: > 100 µM
SNB-19 CNS
  TGI: > 91.2 µM
SNB-75 CNS
  TGI: 47.6 µM
SNB-78 CNS
  TGI: > 89.4 µM
SR leukemia
  TGI: > 100 µM
SW-620 colon
  TGI: > 100 µM
T-47D breast
  TGI: > 100 µM
TK-10 renal
  TGI: > 100 µM
U251 CNS
  TGI: > 78.7 µM
UACC-257 melanoma
  TGI: > 100 µM
UACC-62 melanoma
  TGI: > 97.1 µM
UO-31 renal
  TGI: > 100 µM
XF 498 CNS
  TGI: > 70.2 µM

## Nc1nc2[nH]c(=O)cnc2c(=O)[nH]1
A498 renal
  TGI: > 125 µM
A549 NSCLC
  TGI: > 125 µM
CAKI-1 renal
  TGI: > 125 µM
CCRF-CEM leukemia
  TGI: > 125 µM
COLO 205 colon
  TGI: > 125 µM
DLD-1 colon
  TGI: > 125 µM
DMS 114 small cell lung
  TGI: > 125 µM
DMS 273 small cell lung
  TGI: > 125 µM
EKVX NSCLC
  TGI: > 125 µM
HCC-2998 colon
  TGI: > 125 µM
HCT-116 colon
  TGI: > 125 µM
HCT-15 colon
  TGI: > 78.9 µM
HL-60(TB) leukemia
  TGI: > 125 µM
HOP-18 NSCLC
  TGI: > 5.8 µM
HOP-62 NSCLC
  TGI: > 125 µM
HOP-92 NSCLC
  TGI: > 125 µM
HT29 colon
  TGI: > 125 µM
IGROV1 ovarian
  TGI: > 125 µM
K-562 leukemia
  TGI: > 125 µM
KM12 colon
  TGI: > 125 µM
KM20L2 colon
  TGI: > 91.4 µM
LOX IMVI melanoma
  TGI: > 125 µM
M19-MEL melanoma
  TGI: > 85.2 µM
MALME-3M melanoma
  TGI: > 125 µM
MCF7 breast
  TGI: > 125 µM
MOLT-4 leukemia
  TGI: > 125 µM
NCI-H226 lung
  TGI: > 125 µM
NCI-H23 lung
  TGI: > 125 µM
NCI-H460 lung
  TGI: > 125 µM
NCI-H522 lung
  TGI: > 19.8 µM
NCI/ADR-RES ovarian
  TGI: > 125 µM
OVCAR-3 ovarian
  TGI: > 125 µM
OVCAR-4 ovarian
  TGI: > 125 µM
OVCAR-5 ovarian
  TGI: > 107 µM
OVCAR-8 ovarian
  TGI: > 125 µM
P388 leukemia
  TGI: > 125 µM
P388/ADR leukemia
  TGI: > 125 µM
RPMI-8226 leukemia
  TGI: > 125 µM
RXF 393 renal
  TGI: > 125 µM
SF-268 CNS
  TGI: > 125 µM
SF-295 CNS
  TGI: > 125 µM
SF-539 CNS
  TGI: > 125 µM
SK-MEL-2 melanoma
  TGI: > 125 µM
SK-MEL-28 melanoma
  TGI: > 125 µM
SK-MEL-5 melanoma
  TGI: > 125 µM
SK-OV-3 ovarian
  TGI: > 125 µM
SN12C renal
  TGI: > 125 µM
SN12K1 renal
  TGI: > 125 µM
SNB-19 CNS
  TGI: > 125 µM
SNB-75 CNS
  TGI: > 125 µM
SNB-78 CNS
  TGI: > 125 µM
SW-620 colon
  TGI: > 125 µM
U251 CNS
  TGI: > 125 µM
UACC-257 melanoma
  TGI: > 125 µM
UACC-62 melanoma
  TGI: > 125 µM
UO-31 renal
  TGI: > 125 µM
XF 498 CNS
  TGI: > 125 µM
